Data as given in ChEMBL document CHEMBL5247623, “The SAR and action mechanisms of autophagy inhibitors that eliminate drug resistance” (Eur J Med Chem, 2022).
Each block holds one molecule with its values, some of them ahead of it.

Experiments:
[1] = system: BT-474; assay: Inhibition of autophagy in human BT-474 cells; type: functional, cell-based
[2] = molecular target: T1, Serine/threonine-protein kinase ULK1 (Homo sapiens, UniProt O75385); assay: Inhibition of ULK1 (unknown origin)
T1 sequence (O75385 whole entry): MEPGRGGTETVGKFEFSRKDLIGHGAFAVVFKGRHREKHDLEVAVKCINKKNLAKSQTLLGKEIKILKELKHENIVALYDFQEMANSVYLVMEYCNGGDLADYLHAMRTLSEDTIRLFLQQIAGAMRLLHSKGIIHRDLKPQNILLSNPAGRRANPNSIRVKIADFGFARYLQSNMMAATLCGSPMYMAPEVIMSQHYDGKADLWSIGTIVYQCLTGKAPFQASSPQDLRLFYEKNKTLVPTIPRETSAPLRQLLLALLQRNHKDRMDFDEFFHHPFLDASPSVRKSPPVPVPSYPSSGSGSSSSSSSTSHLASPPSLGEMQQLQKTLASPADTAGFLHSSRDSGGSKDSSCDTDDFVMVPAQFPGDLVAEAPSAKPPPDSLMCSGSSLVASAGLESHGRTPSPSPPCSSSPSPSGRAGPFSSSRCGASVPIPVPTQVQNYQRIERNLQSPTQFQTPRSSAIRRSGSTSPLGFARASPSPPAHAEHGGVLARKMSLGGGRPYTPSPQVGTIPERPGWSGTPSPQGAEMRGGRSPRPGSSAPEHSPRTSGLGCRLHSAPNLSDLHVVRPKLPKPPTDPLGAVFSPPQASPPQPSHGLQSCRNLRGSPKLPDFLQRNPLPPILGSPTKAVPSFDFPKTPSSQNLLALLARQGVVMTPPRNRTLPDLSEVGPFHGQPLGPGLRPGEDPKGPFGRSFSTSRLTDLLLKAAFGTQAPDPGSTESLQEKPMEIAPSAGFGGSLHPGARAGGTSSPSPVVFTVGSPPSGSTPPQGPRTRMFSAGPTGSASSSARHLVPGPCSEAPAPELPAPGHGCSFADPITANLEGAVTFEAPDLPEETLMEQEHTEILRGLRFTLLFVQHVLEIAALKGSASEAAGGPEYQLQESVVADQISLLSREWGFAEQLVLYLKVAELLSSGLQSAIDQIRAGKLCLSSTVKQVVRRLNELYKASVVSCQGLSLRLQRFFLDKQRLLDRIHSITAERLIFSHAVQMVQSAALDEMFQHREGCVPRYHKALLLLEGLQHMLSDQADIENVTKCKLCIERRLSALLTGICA

[3] = molecular target: T2, Serine/threonine-protein kinase ULK2 (Homo sapiens, UniProt Q8IYT8); assay: Inhibition of ULK2 (unknown origin)
T2 sequence (Q8IYT8 whole entry): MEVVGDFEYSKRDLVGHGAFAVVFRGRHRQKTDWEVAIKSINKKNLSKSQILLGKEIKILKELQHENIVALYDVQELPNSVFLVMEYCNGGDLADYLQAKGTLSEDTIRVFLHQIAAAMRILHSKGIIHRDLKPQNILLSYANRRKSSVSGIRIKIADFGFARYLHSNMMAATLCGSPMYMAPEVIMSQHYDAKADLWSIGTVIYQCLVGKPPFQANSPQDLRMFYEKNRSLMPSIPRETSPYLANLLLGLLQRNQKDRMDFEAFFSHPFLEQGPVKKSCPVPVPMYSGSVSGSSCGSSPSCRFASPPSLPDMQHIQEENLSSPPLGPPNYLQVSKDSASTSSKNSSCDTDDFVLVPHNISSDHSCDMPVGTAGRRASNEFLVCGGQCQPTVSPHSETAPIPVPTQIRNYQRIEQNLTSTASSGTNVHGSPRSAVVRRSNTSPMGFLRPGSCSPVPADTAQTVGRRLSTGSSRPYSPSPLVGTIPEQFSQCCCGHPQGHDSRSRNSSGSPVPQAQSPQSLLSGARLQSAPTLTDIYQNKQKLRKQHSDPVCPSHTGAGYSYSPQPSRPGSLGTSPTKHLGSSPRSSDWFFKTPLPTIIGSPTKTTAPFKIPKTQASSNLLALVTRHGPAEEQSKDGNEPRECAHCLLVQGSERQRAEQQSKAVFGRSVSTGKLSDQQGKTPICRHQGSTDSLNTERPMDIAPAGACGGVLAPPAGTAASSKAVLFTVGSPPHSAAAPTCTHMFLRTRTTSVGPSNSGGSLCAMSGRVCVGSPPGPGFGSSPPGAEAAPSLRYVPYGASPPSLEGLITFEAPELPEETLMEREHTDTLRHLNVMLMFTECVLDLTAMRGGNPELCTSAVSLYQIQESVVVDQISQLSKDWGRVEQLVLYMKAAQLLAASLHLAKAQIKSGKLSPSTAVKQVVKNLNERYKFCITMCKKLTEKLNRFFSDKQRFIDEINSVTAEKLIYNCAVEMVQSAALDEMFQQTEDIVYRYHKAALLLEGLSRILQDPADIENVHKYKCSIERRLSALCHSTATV

[4] = Inhibition of bafilomycin induced autophagic flux in mouse embryonic fibroblast cells assessed as fold change in LC3-II levels at 1 uM incubated for 1 hr by immunoblot analysis relative to control; type: functional
[5] = system: U2OS; assay: Cytotoxicity against human U2OS cells; type: functional, cell-based
[6] = system: U2OS; assay: Inhibition of autophagy in human U2OS cells expressing tfLC3 incubated for 3 hrs by fluorescent microscopy; type: functional, cell-based
[7] = molecular target: Phosphatidylinositol 4,5-bisphosphate 3-kinase catalytic subunit gamma isoform (Homo sapiens, UniProt P48736); assay: Inhibition of P13Kgamma (unknown origin)
[8] = Inhibition of V-ATPase (unknown origin); design: species or system Homo sapiens
[9] = molecular target: AMP-activated protein kinase, AMPK; assay: Inhibition of rat AMPK; type: protein-complex assay

Chain of Phosphatidylinositol 4,5-bisphosphate 3-kinase catalytic subunit gamma isoform (P48736 whole entry, canonical isoform): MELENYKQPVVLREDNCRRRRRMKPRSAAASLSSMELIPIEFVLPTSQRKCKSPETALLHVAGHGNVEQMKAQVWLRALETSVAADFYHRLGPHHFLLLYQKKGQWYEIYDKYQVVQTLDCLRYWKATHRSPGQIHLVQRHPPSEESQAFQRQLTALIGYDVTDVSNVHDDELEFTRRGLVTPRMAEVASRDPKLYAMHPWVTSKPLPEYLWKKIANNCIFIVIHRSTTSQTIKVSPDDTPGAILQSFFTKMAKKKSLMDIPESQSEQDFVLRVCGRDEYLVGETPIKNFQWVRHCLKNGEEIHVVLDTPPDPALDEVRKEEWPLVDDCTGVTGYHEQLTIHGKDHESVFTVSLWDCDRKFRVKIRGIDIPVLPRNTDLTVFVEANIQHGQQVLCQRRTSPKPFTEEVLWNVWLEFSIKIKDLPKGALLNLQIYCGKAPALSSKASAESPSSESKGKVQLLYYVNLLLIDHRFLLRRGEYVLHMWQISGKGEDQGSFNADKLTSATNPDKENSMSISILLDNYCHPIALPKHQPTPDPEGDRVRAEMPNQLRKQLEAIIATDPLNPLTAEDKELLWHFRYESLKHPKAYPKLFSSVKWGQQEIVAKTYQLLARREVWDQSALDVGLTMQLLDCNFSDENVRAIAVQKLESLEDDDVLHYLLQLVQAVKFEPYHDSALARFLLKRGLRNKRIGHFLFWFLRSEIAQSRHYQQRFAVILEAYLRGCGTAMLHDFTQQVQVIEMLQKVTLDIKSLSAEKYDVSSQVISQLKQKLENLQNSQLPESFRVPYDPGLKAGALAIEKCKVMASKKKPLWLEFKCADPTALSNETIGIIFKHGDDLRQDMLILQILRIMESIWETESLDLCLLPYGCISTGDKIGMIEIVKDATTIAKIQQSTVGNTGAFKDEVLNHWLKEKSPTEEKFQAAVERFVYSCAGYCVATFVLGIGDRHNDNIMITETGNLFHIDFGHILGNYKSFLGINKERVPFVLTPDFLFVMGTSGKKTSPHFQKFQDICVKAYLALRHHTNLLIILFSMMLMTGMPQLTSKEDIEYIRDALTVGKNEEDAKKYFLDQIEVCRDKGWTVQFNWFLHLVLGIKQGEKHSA

- EC50 ([1]; read-out: EC50): 9.5 µM
Compound: CN1CCN(Cc2cc(CNC3(c4ccccc4F)CCCC3)ccc2O)CC1

Compound: O=C(NCCCNc1nc(Nc2cccc(CN3CCOCC3)c2)ncc1C1CC1)C1CC1
- IC50 [2]: 0.0029 µM
- IC50 [3]: 0.0011 µM
- fold change (FC) [4]: 2

- IC50 [2]: 0.0083 µM
- IC50 [3]: 0.03 µM
Compound: O=C(N[C@@H](C1CC1)C(F)(F)F)c1cc(C2C=C3N=C(c4ccc(F)cc4)C=CN3N2)cs1 (some centres undefined)

- IC50 [2]: 0.0016 µM
- IC50 [3]: 0.0026 µM
Compound: CC(C)[C@H](NC(=O)c1cc(C2C=C3N=C(c4ccc(OCCN5CCCCC5)cc4)C=CN3N2)cs1)C(F)(F)F (some centres undefined)

- EC50 [6]: 5 µM
Compound: CN1CCN(CCNc2c3ccccc3nc3cc(Cl)ccc23)CC1
- IC50 [5]: 27 µM

- EC50 [6]: 0.1 µM
Compound: COc1ccc2nc3cc(Cl)ccc3c(NCCCCN3CCN(C)CC3)c2c1
- IC50 [5]: 0.7 µM

Compound: Cn1cnc(N)c2ncnc1-2 [3-METHYLADENINE]
- IC50 [7]: 60 µM

Compound: CO/C1=C\C(C)=C\[C@@H](C)[C@@H](O)[C@@H](C)C/C(C)=C/C=C/[C@H](OC)[C@@H]([C@@H](C)[C@@H](O)[C@H](C)[C@@]2(O)C[C@@H](O)[C@H](C)[C@@H](C(C)C)O2)OC1=O [BAFILOMYCIN A1]
- IC50 [8]: 0.00044 µM

- EC50 [1]: 4.8 µM
Compound: CCN(CC)CCCC(C)Nc1ccnc2cc(Cl)ccc12 (centres undefined) [CHLOROQUINE]

Compound: c1cc(-c2cnn3cc(-c4ccc(OCCN5CCCCC5)cc4)cnc23)ccn1 [DORSOMORPHIN]
- IC50 [9]: 1.28 µM

- EC50 [6]: 0.25 µM
Compound: CCN(CC)CCCC(C)Nc1c2ccc(Cl)cc2nc2ccc(OC)cc12 (centres undefined) [QUINACRINE]
- IC50 [5]: 2.5 µM

- IC50 [9]: 0.062 µM
Compound: CCN(CC)CCNC(=O)c1c(C)[nH]c(/C=C2\C(=O)Nc3ccc(F)cc32)c1C [SUNITINIB]
